Experimental findings from PubChem BioAssay (NCI) are described below.

Test systems include HOP-18 NSCLC; DMS 114 small cell lung; SNB-78 CNS; RXF-631 renal; DMS 273 small cell lung; XF 498 CNS; M19-MEL melanoma; DLD-1 colon; MDA-N; P388/ADR leukemia; SN12K1 renal.
Assay in all cases: NCI tumour cell line growth inhibition, 48 h

Values joined by “and” are separate entries in the source; they are usually repeats but may differ in a detail not shown here. Equal values may be shown once.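 Tested at 5 concentrations; 48 h exposure; 96-well plates; endpoints linearly interpolated, else capped at highest concentration. GI50 is the concentration that inhibits growth by half. TGI: total growth inhibition.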

In the case of `CC[C@@]1(O)C(=O)OCc2c1cc1n(c2=O)Cc2cc3c(N)c(OC)ccc3nc2-1`, the GI50 in the experiment with HOP-18 NSCLC was 0.14 µM; in the experiment on DMS 114 small cell lung it was 0.0252 µM; with SNB-78 CNS, 1.22 µM; with RXF-631 renal, 0.176 µM; in the experiment on DMS 273 small cell lung it was below 0.0166 µM; in the experiment with XF 498 CNS, 0.389 µM. Moreover, the GI50 was 0.159 µM in the experiment with M19-MEL melanoma and 1 µM in the experiment on DLD-1 colon. Moreover, the TGI is above 100 µM in the experiment on HOP-18 NSCLC; 0.189 µM in the experiment on DMS 114 small cell lung; above 100 µM with SNB-78 CNS; 2.74 µM in the experiment on RXF-631 renal; 0.36 µM in the experiment with DMS 273 small cell lung; 4.14 µM with XF 498 CNS. The TGI in the experiment with M19-MEL melanoma is 1.46 µM; in the experiment with DLD-1 colon, above 100 µM.

Turning to `C=CCN=C1NC(=O)C(CC(=O)Nc2ccc([N+](=O)[O-])cc2[N+](=O)[O-])S1` (stereo not drawn), the TGI with HOP-18 NSCLC, with DMS 114 small cell lung, in the experiment with SNB-78 CNS, in the experiment on RXF-631 renal, in the experiment on DMS 273 small cell lung and in the experiment on XF 498 CNS was above 100 µM in each case. The TGI in the experiment with M19-MEL melanoma and in the experiment on DLD-1 colon was above 100 µM each time.

In the case of `CC(C)CC1CC2C(=O)N(c3ccccc3)C(=O)C2c2[nH]c3ccccc3c21` (stereo not drawn), the TGI was 31.4 µM with HOP-18 NSCLC; 52.7 µM with DMS 114 small cell lung; above 100 µM in the experiment on SNB-78 CNS; 51.8 µM in the experiment with RXF-631 renal; above 100 µM in the experiment on DMS 273 small cell lung; 48.6 µM with XF 498 CNS. For the same compound, the TGI with M19-MEL melanoma and in the experiment with DLD-1 colon was above 100 µM in each case.

`NNC(=O)C(=O)N/N=C1\CCCC1C(=O)CCC(=O)Nc1cccc(Cl)c1` (stereo not drawn): the TGI in the experiment on HOP-18 NSCLC, in the experiment with DMS 114 small cell lung, in the experiment with SNB-78 CNS, with RXF-631 renal, in the experiment on XF 498 CNS and with M19-MEL melanoma was above 100 µM each time. In the experiment on DLD-1 colon, the TGI was above 100 µM.

As for `NNC(=S)N/N=C(\c1nc2ccc(Cl)cc2[nH]c1=O)C(O)c1cccc([N+](=O)[O-])c1` (stereo not drawn), the TGI is above 100 µM with HOP-18 NSCLC; above 24.5 µM in the experiment on DMS 114 small cell lung; above 100 µM in the experiment with SNB-78 CNS; above 100 µM in the experiment on RXF-631 renal; above 58.7 µM in the experiment on DMS 273 small cell lung; above 100 µM in the experiment on XF 498 CNS. In the experiment with M19-MEL melanoma, this compound displayed a TGI above 100 µM.

In the case of `O=C1C2C3C=CC(C2C(=O)N1CN1CCOCC1)C1C2C(=O)N(CN4CCOCC4)C(=O)C2C31` (stereo not drawn), the TGI in the experiment with HOP-18 NSCLC is 60.2 µM; in the experiment with DMS 114 small cell lung, 34.1 µM; in the experiment on SNB-78 CNS, above 100 µM; with RXF-631 renal, 74.9 µM; in the experiment with DMS 273 small cell lung it was 33.3 µM; in the experiment with MDA-N it was above 100 µM. The results for the TGI in the experiment on M19-MEL melanoma and with DLD-1 colon were 40.5 µM and above 100 µM, respectively.

In the case of `O=C1/C(=C/c2ccccc2)CN(C(=O)/C=C/c2ccccc2)C/C1=C\c1ccccc1`, the TGI with HOP-18 NSCLC was 97.6 µM; in the experiment with DMS 114 small cell lung, above 43.8 µM; with SNB-78 CNS it was above 73 µM; in the experiment on RXF-631 renal, above 100 µM; in the experiment on DMS 273 small cell lung, above 100 µM; with MDA-N, 3.43 µM. Also, the TGI in the experiment on XF 498 CNS was 38 µM; in the experiment on M19-MEL melanoma it was above 22.9 µM; with DLD-1 colon it was 11.3 µM.

In the case of `Nc1ncnc2c1ncn2C1(CO)OC(CO)C(O)C1O` (stereo not drawn), the TGI in the experiment on HOP-18 NSCLC, in the experiment on DMS 114 small cell lung, in the experiment with SNB-78 CNS, in the experiment with RXF-631 renal, in the experiment on DMS 273 small cell lung and with XF 498 CNS was above 100 µM each time. For the same compound, the TGI in the experiment on DLD-1 colon was above 100 µM.

With `CCOC(=O)c1ccc(N[C@@H]2c3cc4c(cc3C(c3cc(OC)c(O)c(OC)c3)[C@H]3C(=O)OCC32)OCO4)cc1` (stereo partly drawn), the TGI with P388/ADR leukemia is 0.0959 µM; with DMS 114 small cell lung, 3.65 µM; with SN12K1 renal it was 1.44 µM; in the experiment on SNB-78 CNS, 66.2 µM; in the experiment with DMS 273 small cell lung, 3.85 µM; in the experiment on XF 498 CNS, 0.979 µM and 5.6 µM. Also, the TGI with M19-MEL melanoma was 9.13 µM; in the experiment on DLD-1 colon, 8.02 µM. Besides, the GI50 was 0.326 µM with DMS 114 small cell lung; 0.134 µM and 0.156 µM in the experiment on DMS 273 small cell lung; 0.418 µM in the experiment with XF 498 CNS; 0.697 µM in the experiment with M19-MEL melanoma; 0.877 µM with DLD-1 colon.
